From US9115169B2, “Method of treating tumors” (Lytix Biopharma AS, priority 2000, dated 2015)
Converted amounts (≈) assume the structure as drawn. “And” between values parts separate entries of the source, which are not always exact repeats. Identical values can stand only once. Like-named read-outs stand apart in the source and are kept apart here. *1 amine or outer side, *2 acyl side, *3 side chain or, on linkers, in order; H or OH if unused. Where a SMILES comes first, the peptide text is derived from it. Where no end group is shown, it is not given here. [ ]: non-standard residue; d: D form. The star is where a group is joined. Bip = N[C@@H](Cc1ccc(-c2ccccc2)cc1)C(=O)O; Ethylenediamine = C(CN[*:2])N[*:1]; βNA = c1ccc2cc(N*)ccc2c1; Cbz = O=C(OCc1ccccc1)*; OBn = c1ccc(CO*)cc1

How the values were obtained:
[1] = system: Escherichia coli ATCC 25922
[2] = system: Staphylococcus aureus ATCC 25923
[3] = system: Escherichia coli ATCC 25922; remark: listed apart in the source
[4] = system: Staphylococcus aureus ATCC 25923; remark: listed apart in the source
[5] = Table 1, peptide amides, value outside brackets

Experimental for MRSA ATCC 33591: (§1) All strains were stored at −70° C. […] All assays were performed in duplicate.
Experimental for MRSE ATCC 27626: as §1

Row | Molecule | MBC E. coli ([1]; ATCC 25922) | MBC S. aureus ([2]; ATCC 25923) | MIC E. coli ([3]; ATCC 25922) | MIC S. aureus ([4]; ATCC 25923) | further results
1 | N=C(N)NCCC[C@H](NC(=O)[C@H](Cc1c[nH]c2ccccc12)NC(=O)[C@H](CCCNC(=N)N)NC(=O)[C@H](Cc1c[nH]c2ccccc12)NC(=O)[C@@H](N)CCCNC(=N)N)C(=O)N[C@@H](Cc1c[nH]c2ccccc12)C(N)=O [RWRWRW] (H-RWRWRW-NH2) | 20 µg/mL (≈ 19.2 µM) | 10 µg/mL (≈ 9.58 µM) |  |  | 
2 | N=C(N)NCCC[C@H](N)C(=O)N[C@@H](Cc1c[nH]c2ccccc12)C(=O)Nc1ccc2ccccc2c1 [RWβNA] (H-Arg-Trp-βNA) |  |  |  |  | Minimum inhibitory concentration E. coli ([3]; Table 9): 100 µg/mL (≈ 206 µM); Minimum inhibitory concentration S. aureus ([4]; Table 9): 12.5 µg/mL (≈ 25.7 µM); Minimum inhibitory concentration MRSA (MRSA ATCC 33591; Table 9): 12.5 µg/mL (≈ 25.7 µM); Minimum inhibitory concentration MRSE (MRSE ATCC 27626; Table 9): 12.5 µg/mL (≈ 25.7 µM)
3 | N=C(N)NCCC[C@H](NC(=O)[C@H](Cc1c[nH]c2ccccc12)NC(=O)[C@@H](N)CCCNC(=N)N)C(=O)N[C@@H](Cc1c[nH]c2ccccc12)C(=O)OCc1ccccc1 [RWRW-OBzl] (H-RWRW-OBn) |  |  | 100 µg/mL (≈ 126 µM) |  | MIC MRSE (MRSE ATCC 27626; ATCC 27626): 2.5 µg/mL (≈ 3.15 µM)
4 | N=C(N)NCCC[C@H](N)C(=O)N[C@H](Cc1c[nH]c2ccccc12)C(=O)OCc1ccccc1 [Rw-OBzl] (H-Arg-[dW]-OBn; N-terminus assumed) |  |  | >300 µg/mL | 37.5 µg/mL (≈ 83.2 µM) | MIC MRSA (MRSA ATCC 33591; ATCC 33591): 37.5 µg/mL (≈ 83.2 µM); MIC MRSE (MRSE ATCC 27626; ATCC 27626): 25 µg/mL (≈ 55.5 µM)
5 | N=C(N)NCCC[C@H](NC(=O)[C@H](Cc1c[nH]c2ccccc12)NC(=O)[C@H](CCCNC(=N)N)NC(=O)[C@@H](N)Cc1c[nH]c2ccccc12)C(N)=O [WRWR] (H-WRWR-NH2; N-terminus assumed) |  |  |  |  | MIC E. coli [3, 5]: >100 µg/mL; MIC S. aureus [4, 5]: 100 µg/mL (≈ 142 µM); MBC E. coli ([1]; Table 1, peptide amides): >100 µg/mL; MBC S. aureus [2, 5]: >100 µg/mL
6 | N=C(N)NCCC[C@H](NC(=O)[C@H](Cc1c[nH]c2ccccc12)NC(=O)[C@@H](N)CCCNC(=N)N)C(N)=O [RWR] (H-Arg-Trp-Arg-NH2; N-terminus assumed) | >100 µg/mL | >100 µg/mL | >100 µg/mL | >100 µg/mL | 
7 | N=C(N)NCCC[C@@H](N)C(=O)N[C@@H](Cc1c[nH]c2ccccc12)C(=O)OCc1ccccc1 [rW-Obzl] (H-[dR]-Trp-OBn; N-terminus assumed) |  |  | >300 µg/mL | 37.5 µg/mL (≈ 83.2 µM) | MIC MRSA (MRSA ATCC 33591; ATCC 33591): 50 µg/mL (≈ 111 µM); MIC MRSE (MRSE ATCC 27626; ATCC 27626): 25 µg/mL (≈ 55.5 µM)
8 | N=C(N)NCCC[C@H](NC(=O)[C@H](Cc1c[nH]c2ccccc12)NC(=O)[C@H](CCCNC(=N)N)NC(=O)[C@H](Cc1c[nH]c2ccccc12)NC(=O)[C@@H](N)CCCNC(=N)N)C(N)=O [RWRWR] (H-RWRWR-NH2) | 100 µg/mL (≈ 117 µM) | 20 µg/mL (≈ 23.3 µM) |  | 20 µg/mL (≈ 23.3 µM) | 
9 | N=C(N)NCCC[C@H](NC(=O)[C@@H](N)Cc1c[nH]c2ccccc12)C(=O)N[C@@H](Cc1c[nH]c2ccccc12)C(N)=O [WRW] (H-Trp-Arg-Trp-NH2; N-terminus assumed) | >100 µg/mL | 100 µg/mL (≈ 183 µM) | >100 µg/mL | 75 µg/mL (≈ 137 µM) | 
10 | N=C(N)NCCC[C@H](NC(=O)[C@H](CCCNC(=N)N)NC(=O)[C@H](Cc1c[nH]c2ccccc12)NC(=O)[C@H](Cc1c[nH]c2ccccc12)NC(=O)[C@H](Cc1c[nH]c2ccccc12)NC(=O)[C@@H](N)CCCNC(=N)N)C(N)=O [RWWWRR] (H-RWWWRR-NH2) | 15 µg/mL (≈ 14.4 µM) | 10 µg/mL (≈ 9.58 µM) | 10 µg/mL (≈ 9.58 µM) | 7.5 µg/mL (≈ 7.18 µM) | 
11 | C[C@H](N)C(=O)N[C@@H](CCCNC(=N)N)C(=O)OCc1ccc(-c2ccccc2)cc1 [AROBip] |  |  |  |  | Minimum inhibitory concentration E. coli ([3]; ATCC 25922): 300 µg/mL (≈ 729 µM); Minimum inhibitory concentration S. aureus ([4]; ATCC 25923): 100 µg/mL (≈ 243 µM); Minimum inhibitory concentration MRSA (MRSA ATCC 33591; ATCC 33591): 37.5 µg/mL (≈ 91.1 µM); Minimum inhibitory concentration MRSE (MRSE ATCC 27626; ATCC 27626): 25 µg/mL (≈ 60.8 µM)
12 | N=C(N)NCCC[C@@H](N)C(=O)N[C@H](Cc1c[nH]c2ccccc12)C(=O)OCc1ccccc1 [rw-OBzl] (H-[dR]-[dW]-OBn) |  |  | >200 µg/mL |  | MIC MRSE (MRSE ATCC 27626; ATCC 27626): 20 µg/mL (≈ 44.4 µM)
13 | N=C(N)NCCC[C@H](NC(=O)[C@H](CCCNC(=N)N)NC(=O)[C@@H](N)CCCNC(=N)N)C(=O)N[C@@H](Cc1c[nH]c2ccccc12)C(=O)N[C@@H](Cc1c[nH]c2ccccc12)C(=O)N[C@@H](Cc1c[nH]c2ccccc12)C(N)=O [RRRWWW] (H-RRRWWW-NH2) | 20 µg/mL (≈ 19.2 µM) |  |  |  | 
14 | N=C(N)NCCC[C@H](NC(=O)[C@H](CCCNC(=N)N)NC(=O)[C@@H](N)Cc1c[nH]c2ccccc12)C(=O)N[C@@H](Cc1c[nH]c2ccccc12)C(N)=O [WRRW] (H-WRRW-NH2; N-terminus assumed) | >100 µg/mL | >100 µg/mL | >100 µg/mL | 75 to 100 µg/mL | 
15 | N=C(N)NCCC[C@H](NC(=O)[C@H](CCCNC(=N)N)NC(=O)[C@H](CCCNC(=N)N)NC(=O)[C@H](Cc1c[nH]c2ccccc12)NC(=O)[C@@H](N)Cc1c[nH]c2ccccc12)C(=O)N[C@@H](Cc1c[nH]c2ccccc12)C(N)=O [WWRRRW] (H-WWRRRW-NH2) | 20 µg/mL (≈ 19.2 µM) |  | 20 (20) μg/ml |  | 
16 | N=C(N)NCCC[C@@H](NC(=O)[C@H](N)Cc1c[nH]c2ccccc12)C(=O)N[C@H](Cc1c[nH]c2ccccc12)C(=O)OCc1ccccc1 [wrw-OBzl] (H-[dW]-[dR]-[dW]-OBn) |  |  |  |  | MIC MRSE (MRSE ATCC 27626; ATCC 27626): 5 µg/mL (≈ 7.85 µM)
17 | N=C(N)NCCC[C@H](N)C(=O)N[C@@H](Cc1c[nH]c2ccccc12)C(=O)NCCNC(=O)OCc1ccccc1 [RW DaeZ, H-Arg-Trp-Dae-Z] (H-Arg-Trp-{Ethylenediamine-Cbz}) | >200 (>200) μg/ml | 75 µg/mL (≈ 140 µM) | >200 (>200) μg/ml | 50 µg/mL (≈ 93.2 µM) | 
18 | N=C(N)NCCC[C@H](NC(=O)[C@H](N)Cc1c[nH]c2ccccc12)C(=O)N[C@@H](Cc1c[nH]c2ccccc12)C(=O)OCc1ccccc1 [wRW-OBzl] (H-[dW]-Arg-Trp-OBn) |  |  |  | 20 µg/mL (≈ 31.4 µM) | MIC MRSE (MRSE ATCC 27626; ATCC 27626): 10 µg/mL (≈ 15.7 µM)
19 | N=C(N)NCCC[C@H](N)C(=O)N[C@@H](Cc1c[nH]c2ccccc12)C(=O)N[C@H](CCCNC(=N)N)C(=O)N[C@H](Cc1c[nH]c2ccccc12)C(=O)OCc1ccccc1 [RWrw-OBzl] (H-RW[dR][dW]-OBn) |  |  |  | 5 µg/mL (≈ 6.31 µM) | MIC MRSE (MRSE ATCC 27626; ATCC 27626): 2.5 µg/mL (≈ 3.15 µM)
20 | COC(=O)[C@H](CCCNC(=N)N)NC(=O)[C@H](Cc1c[nH]c2ccccc12)NC(=O)Cc1c[nH]c2ccccc12 [Ind WR OMe, Ind-Trp-Arg-OMe] | >200 (>200) μg/ml | >200 (>200) μg/ml | >200 (>200) μg/ml | >200 (>200) μg/ml | 
21 | COC(=O)[C@H](CCCNC(=N)N)NC(=O)[C@H](Cc1c[nH]c2ccccc12)NC(=O)C1CCCCC1 [Chx WR OMe, Chx-Trp-Arg-OMe] | >200 (>200) μg/ml | >200 (>200) μg/ml | >200 (>200) μg/ml | >200 (>200) μg/ml | 
22 | N=C(N)NCCC[C@H](NC(=O)Cc1c[nH]c2ccccc12)C(=O)N[C@@H](Cc1c[nH]c2ccccc12)C(=O)NCCNC(=O)OCc1ccccc1 [Ind RW DaeZ, Ind-Arg-Trp-Dae-Z] | >200 (>200) μg/ml | 75 (75) μg/ml | >200 (>200) μg/ml | 75 (75) μg/ml | 
23 | RRAAWW-NH2 Pmc+: hexapeptide amide having the Pmc group; label printed twice, second probably RRAAWB (also: Pmc group, position not given here) |  |  |  |  | MIC E. coli ([3]; Table 8, first column): 20 µg/mL; MIC E. coli ([3]; Table 8, second column): 17.4 μM/ml and 18.0 μM/ml; MIC S. aureus ([4]; Table 8, first column): 2.5 µg/mL; MIC S. aureus ([4]; Table 8, second column): 2.2 μM/ml and 2.3 μM/ml
24 | N=C(N)NCCC[C@H](NC(=O)[C@H](Cc1c[nH]c2ccccc12)NC(=O)[C@H](CCCNC(=N)N)NC(=O)[C@@H](N)Cc1c[nH]c2ccccc12)C(=O)N[C@@H](Cc1c[nH]c2ccccc12)C(N)=O [WRWRW] (H-WRWRW-NH2) | 50 µg/mL (≈ 56.3 µM) | 20 (20) μg/ml |  |  | 
25 | N=C(N)NCCC[C@H](NC(=O)[C@H](Cc1c[nH]c2ccccc12)NC(=O)[C@H](Cc1c[nH]c2ccccc12)NC(=O)[C@@H](N)CCCNC(=N)N)C(N)=O [RWWR] (H-RWWR-NH2; N-terminus assumed) | >100 µg/mL | >100 µg/mL | >100 µg/mL | 10 µg/mL (≈ 14.2 µM) | 
26 | C[C@H](NC(=O)[C@H](C)NC(=O)[C@H](CCCNC(=N)N)NC(=O)[C@@H](N)CCCNC(=N)N)C(=O)N[C@@H](Cc1c[nH]c2ccccc12)C(=O)N[C@@H](Cc1c[nH]c2ccccc12)C(N)=O [RRAAWW-NH2] (H-RRAAWW-NH2; N-terminus assumed) |  |  | >200 µg/mL | >200 µg/mL | MIC E. coli ([3]; Table 8, second column): 237.0 μM/ml; MIC S. aureus ([4]; Table 8, second column): 237.0 μM/ml
27 | N=C(N)NCCC[C@H](NC(=O)[C@H](CCCNC(=N)N)NC(=O)[C@H](Cc1ccc(-c2ccccc2)cc1)NC(=O)[C@@H](N)Cc1ccc(-c2ccccc2)cc1)C(N)=O [BBRR-NH2] (H-[Bip][Bip]RR-NH2; N-terminus assumed) |  |  | 50 µg/mL (≈ 64.4 µM) | 5 µg/mL (≈ 6.44 µM) | MIC E. coli ([3]; Table 8, second column): 64.4 μM/ml; MIC S. aureus ([4]; Table 8, second column): 6.4 μM/ml
28 | N=C(N)NCCC[C@H](NC(=O)Cc1c[nH]c2ccccc12)C(=O)N[C@@H](Cc1c[nH]c2ccccc12)C(=O)OCc1ccccc1 [Ind RW OBz, Ind-Arg-Trp-OBzl] | >200 (>200) μg/ml | 20 (20) μg/ml | >200 (>200) μg/ml | 20 (20) μg/ml | 
29 | N=C(N)NCCC[C@H](NC(=O)C1CCCCC1)C(=O)N[C@@H](Cc1c[nH]c2ccccc12)C(=O)OCc1ccccc1 [Chx RW OBz, Chx-Arg-Trp-OBzl] | 200 (>200) μg/ml | 75 (75) μg/ml | 200 (>200) μg/ml | 75 (75) μg/ml | 
